Measured values as given in publication PMC12564302, “Discovery of N-Hydroxypyridinedione-Based Inhibitors of HBV RNase H: Design, Synthesis, and Extended SAR Studies” (International Journal of Molecular Sciences, 2025).
Converted amounts (≈) assume the structure as drawn. “Also recorded” adds a separate entry of the source. Where two headings read alike, the source gives them in different places.

Experiments:
[1] = tested on: HBV replication in HepDES19 cells; experiment: qPCR HBV replication inhibition assay; type: cell-based, HBV genotype D
Procedure: (§1) HepDES19 cells are a HepG2 cell-line derivative that has been stably transfected with an HBV genotype D genome containing a tetracycline repressible promoter. HepDES19 cells were maintained on collagen-coated plates in Dulbecco’s modified Eagle’s medium (DMEM/F12) (Cytiva Life Sciences, Marlborough, MA, USA) supplemented with 10% fetal bovine serum (FBS), streptomycin (100 µg/mL), and penicillin (100 IU/mL), and incubated at 37 °C with 5% CO2 and saturating humidity. Cells were cultured with 1 µg/mL tetracycline to inhibit the expression of the stably integrated HBV genome, and HBV replication was activated upon removal of tetracycline from the culture medium.
HBV replication inhibition in HepDES19 cells was assessed using a strand-preferential quantitative PCR assay as previously described. HepDES19 cells were seeded in 96 well plates at 4 × 10^4 cells/well for 48 h followed by the addition of serial diluted compound with a final concentration of 1% DMSO for 72 h, after which cells were lysed, and qPCR was performed as described in Li et al.. Effective concentration 50% (EC50) values were calculated from data for the (+) polarity DNA strand data using GraphPad Prism version 10’s four-parameter log (inhibitor) versus response algorithm, with the bottom value set to zero. Three or more replicate assays were performed on different days.

MTS cytotoxicity assay = type: cell-based; details: human, HepDES19 cells, pH 7.4
Procedure: as §1
Cell viability was assessed using the CellTiter 96^TM Aqueous Non-Radioactive Cell Proliferation assay (MTS) (Promega, Madison, WI, USA) as described previously. HepDES19 cells were seeded in 96 well plates at 1 × 10^4 cells/well for 48 h. Cells were then incubated with serial diluted compound, with a final concentration of 1% DMSO, for 72 h. Following compound incubation, background absorbance values were subtracted, and the data were converted into percent cell viability. The cytotoxic concentration 50% (CC50) values were calculated using GraphPad Prism’s four-parameter log (inhibitor) versus response algorithm, with the bottom value set to zero. Three or more replicate assays were performed on different days.

Solubility limit assay = type: physicochemical; details: DMEM-F12 without phenol red with 10% FBS, pH 7.4, plasma or biological fluid, kinetic from dmso stock
Procedure: Solubility limits of compounds were tested as previously reported in DMEM-F12 without phenol red (Gibco, Grand Island, NY, USA) but with the media supplemented with 10% FBS (pH 7.4) to mimic cell culture experiments. In a 384-well optically clear plate, compounds were serially diluted in pH 7.4 buffer (upper limit 200 µM, DMSO 1%) then read at 620 nm. Solubility limits were determined by plotting compound concentration (µM) against optical density (OD) and identifying an inflexion point. The inflexion point is defined by a substantial increase in OD brought on by increasing turbidity, and the compound concentration at this point is known as the solubility limit. Each compound had at least two replicate assays performed on different days.

[2] = Parallel artificial membrane permeability assay; type: in vitro ADME; details: PAMPA, pH 7.4, PAMPA
Procedure: The evaluation of apparent passive permeability (Papp) at pH 7.4 was performed using a donor/acceptor cassette (Innovative Laboratory Products, Phoenix, AZ, USA and Sigma Aldrich, Burlington, MA, USA), which simulates the apical and basolateral sides of the small intestine epithelium, as previously described. An artificial membrane made of 1% w/v lecithin/dodecane was applied to the poly (vinylidene fluoride) (PVDF) membrane filter and allowed to dry. Following drying, compounds (200 µM) were diluted in buffer at pH 7.4 and added to the donor side of the cassette. The same pH buffer was added on the acceptor side of the cassette, after which it was assembled and incubated at room temperature with shaking at 250 rpm for 2 h, before reading the absorbance of 100 µL from the acceptor well on a plate reader between 230 and 700 nm. The Papp (cm/s) values for compounds were determined by normalizing to the compound absorbance at equilibrium using the peak absorbance point for each compound, buffer volume, incubation time, and membrane porosity. Two or more replicate assays were conducted on different days.

[3] = pH 7.4, DMEM-F12 with 10% FBS, 1% DMSO, upper limit 200 µM, read-out: Solubility Limit
[4] = pH 7.4, read-out: Solubility Limit Interpretation
[5] = Hepatitis B virus, HepDES19, 72 h, pH 7.4, HepDES19 cells, 72 h, (+) polarity DNA strand, pH 7.4, read-out: EC50
[6] = pH 7.4, 200 µM, 2 h, read-out: Papp
[7] = pH 7.4, read-out: Papp Interpretation
[8] = Hepatitis B virus, HepDES19, 72 h, experimental potencies of the E/Z mixture, read-out: EC50 mix

Molecule | anti-HBV activity (in words) ([1]; HepDES19 cells) | EC50 ([1]; HepDES19 cells, 72 h, (+) polarity DNA strand, pH 7.4, read-out: EC50) [µM] | CC50 at 72 h (MTS cytotoxicity assay) [µM] | solubility (Solubility limit assay; [3]) [µM] | solubility (Solubility limit assay; [4]) [µM] | EC50 [1, 5] [µM] | Papp at 2 h, 200 µM [2, 6] [×10⁻⁶ cm/s] | Papp at 2 h, 200 µM [2, 7] [×10⁻⁶ cm/s] | EC50 [1, 8] [µM]
2-amino-4-(2-bromophenoxy)-6-iminopyrimidin-1(6H)-ol [Compound 44] | inactive against HBV | > 100 |  |  |  |  |  |  | 
CC(=Nc1ccccc1F)c1c(C)cc(=O)n(O)c1O [Compound 21, 5-(1-((2-fluorophenyl)imino)ethyl)-1,6-dihydroxy-4-methylpyridin-2(1H)-one] |  |  | 86.3 ± 10.2 | > 200 | > 100 | 2.2 ± 0.5 | 5.72 | > 1 | 
CC(=Nc1ccccc1Cl)c1c(C)cc(=O)n(O)c1O [Compound 23, 5-(1-((2-chlorophenyl)imino)ethyl)-1,6-dihydroxy-4-methylpyridin-2(1H)-one] |  |  | 76.8 ± 5.9 | > 200 | > 100 | 2.42 ± 1 | 2.83 | > 1 | 
CC(=Nc1ccc(Cl)c(Cl)c1)c1c(C)cc(=O)n(O)c1O [Compound 24, 5-(1-((3,4-dichlorophenyl)imino)ethyl)-1,6-dihydroxy-4-methylpyridin-2(1H)-one] |  |  | 69 | > 200 | > 100 | 2.17 ± 0.8 | 2.24 | > 1 | 
CC(=Nc1ccccc1Br)c1c(C)cc(=O)n(O)c1O [Compound 25, 5-(1-((2-bromophenyl)imino)ethyl)-1,6-dihydroxy-4-methylpyridin-2(1H)-one] |  |  | 45.8 ± 4.6 | > 200 | > 100 | 4.53 ± 2.5 | 3.12 | > 1 | 
CC(=Nc1ccc(F)cc1F)c1c(C)cc(=O)n(O)c1O [Compound 26, 5-(1-((2,4-difluorophenyl)imino)ethyl)-1,6-dihydroxy-4-methylpyridin-2(1H)-one] |  |  | 54.1 ± 27.7 | > 200 | > 100 | 2.83 ± 1.1 | 3.81 | > 1 | 
CC(=Nc1cc(F)ccc1F)c1c(C)cc(=O)n(O)c1O [Compound 27, 5-(1-((2,5-difluorophenyl)imino)ethyl)-1,6-dihydroxy-4-methylpyridin-2(1H)-one] |  |  | 58.4 ± 21.9 | > 200 | > 100 | 1.97 ± 0.6 | 2.4 | > 1 | 
CC(=Nc1c(F)cccc1F)c1c(C)cc(=O)n(O)c1O [Compound 28, 5-(1-((2,6-difluorophenyl)imino)ethyl)-1,6-dihydroxy-4-methylpyridin-2(1H)-one] |  |  | 52.6 ± 20.5 | > 200 | > 100 | 2.73 ± 1 | 2.48 | > 1 | 
CC(=Nc1ccc(F)c(Cl)c1)c1c(C)cc(=O)n(O)c1O [Compound 29, 5-(1-((3-chloro-4-fluorophenyl)imino)ethyl)-1,6-dihydroxy-4-methylpyridin-2(1H)-one] |  |  | 70.8 ± 18.4 | > 200 | > 100 | 3.25 ± 1 | 3.65 | > 1 | 
CC(=NOCc1ccc(Cl)c(Cl)c1)c1c(C)cc(=O)n(O)c1O [Compound 30, 5-(1-(((3,4-dichlorobenzyl)oxy)imino)ethyl)-1,6-dihydroxy-4-methylpyridin-2(1H)-one] |  |  | 49.7 ± 16.4 | > 200 | > 100 | 1.77 ± 0.7 | 1.59 | > 1 | 1.77 ± 0.7
CC(=NOCc1ccc(Cl)cc1Cl)c1c(C)cc(=O)n(O)c1O [Compound 31, 5-(1-(((2,4-dichlorobenzyl)oxy)imino)ethyl)-1,6-dihydroxy-4-methylpyridin-2(1H)-one] |  |  | 34.4 ± 14.1 | > 200 | > 100 | 0.5 | 4 | > 1 | 0.53 ± 0.3
CC(=NOCc1ccccc1I)c1c(C)cc(=O)n(O)c1O [Compound 32, 1,6-dihydroxy-5-(1-(((2-iodobenzyl)oxy)imino)ethyl)-4-methylpyridin-2(1H)-one] |  |  | 54.1 ± 13.7 | 100 (≈ 41.4 µg/mL) | > 100 | 1.77 ± 0.5 | 3.29 | > 1 | 1.77 ± 0.5
CC(=NCc1ccccc1Br)c1c(C)cc(=O)n(O)c1O [Compound 33, 5-(1-((2-bromobenzyl)imino)ethyl)-1,6-dihydroxy-4-methylpyridin-2(1H)-one] |  |  | 51.3 ± 20.9 | > 200 | > 100 | 8.45 ± 3.5 | 1.22 | > 1 | 
CC(=NCc1cccc(Br)c1)c1c(C)cc(=O)n(O)c1O [Compound 34, 5-(1-((3-bromobenzyl)imino)ethyl)-1,6-dihydroxy-4-methylpyridin-2(1H)-one] |  |  | 22.6 ± 16.7 | > 200 | > 100 | 13.6 ± 2.8 | 1.11 | > 1 | 
CC(=NCc1ccc(Br)cc1)c1c(C)cc(=O)n(O)c1O [Compound 35, 5-(1-((4-bromobenzyl)imino)ethyl)-1,6-dihydroxy-4-methylpyridin-2(1H)-one] |  |  | 44.4 ± 34.4 | > 200 | > 100 | 15 ± 10.7 | 3.15 | > 1 | 
CC(=NOCc1ccccc1Cl)C1C(=O)NC(=O)NC1=O [Compound 45, 5-(1-(((2-chlorobenzyl)oxy)imino)ethyl)pyrimidine-2,4,6(1H,3H,5H)-trione] | inactive; also recorded: lack of inhibition; also recorded: lack of activity |  | 100 |  |  | 100 |  |  | 
